Reference: ChEMBL document CHEMBL4342527, “Discovery of Novel Fungal Lanosterol 14α-Demethylase (CYP51)/Histone Deacetylase Dual Inhibitors to Treat Azole-Resistant Candidiasis” (J Med Chem, 2020)
Converted amounts (≈) assume the structure as drawn. The source made the active and inactive calls. The calls are words filed in the database; no cut-off is given here.

How the values were obtained:
Candida albicans [1] = test: Antifungal activity against azole-resistant Candida albicans 7781 after 48 hrs by spectrophotometry-based serial microdilution method; format: functional; conditions: Candida albicans, 7781, 48 h
[2] = molecular target: T1, Lanosterol 14-alpha demethylase (Candida albicans (strain SC5314 / ATCC MYA-2876) (Yeast), UniProt P10613); test: Inhibition of CYP51 in azole-resistant Candida albicans 0304103 assessed as unknown sterol 5 level at 0.5 ug/ml after 24 hrs by GC-MS analysis (reference value: 4.87%); set-up: scale not given: the % may be the effect or the level left
T1 sequence (P10613 whole entry): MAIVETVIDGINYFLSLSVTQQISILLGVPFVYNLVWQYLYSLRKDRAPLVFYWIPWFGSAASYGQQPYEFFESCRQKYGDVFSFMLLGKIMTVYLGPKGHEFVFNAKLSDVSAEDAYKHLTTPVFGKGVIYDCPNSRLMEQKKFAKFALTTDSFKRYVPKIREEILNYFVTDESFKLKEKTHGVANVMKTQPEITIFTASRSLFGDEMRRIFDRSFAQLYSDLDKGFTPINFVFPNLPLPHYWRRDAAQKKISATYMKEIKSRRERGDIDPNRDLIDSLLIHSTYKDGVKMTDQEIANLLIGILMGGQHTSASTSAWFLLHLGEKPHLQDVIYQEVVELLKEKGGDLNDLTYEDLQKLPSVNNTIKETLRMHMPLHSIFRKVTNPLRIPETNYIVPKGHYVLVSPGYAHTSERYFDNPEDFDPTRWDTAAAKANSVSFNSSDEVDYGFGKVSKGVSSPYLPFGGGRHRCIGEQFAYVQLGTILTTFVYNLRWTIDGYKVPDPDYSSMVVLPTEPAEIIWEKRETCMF

[3] = molecular target: T1, Lanosterol 14-alpha demethylase; test: Inhibition of CYP51 in azole-resistant Candida albicans 0304103 assessed as reduction in ERG11 gene expression at 32 ug/ml after 16 hrs by SYBR Green-1 dye based RT-PCR analysis; set-up: species or system 304103
Candida albicans [4] = test: Inhibition of biofilm formation in azole resistant Candida albicans 0304103 at 64 ug/ml after 24 hrs by XTT assay relative to control; format: functional; conditions: Candida albicans, 0304103, 24 h
[5] = molecular target: T1, Lanosterol 14-alpha demethylase; test: Inhibition of CYP51 in azole-resistant Candida albicans 0304103 assessed as unknown sterol 3 level at 0.5 ug/ml after 24 hrs by GC-MS analysis (reference value: 4.78%); set-up: scale not given: the % may be the effect or the level left
Candida tropicalis = test: Antifungal activity against azole-resistant Candida tropicalis 5008 after 48 hrs by spectrophotometry-based serial microdilution method; format: functional; conditions: Candida tropicalis, 5008, 48 h
Candida albicans [6] = test: Antifungal activity against azole-sensitive Candida albicans SC5314 after 48 hrs by spectrophotometry-based serial microdilution method; format: functional; conditions: Candida albicans, SC5314, 48 h; read-out: MIC80
Candida albicans [7] = test: Antifungal activity against Candida albicans 0304103 assessed as effect on filamentation up to 32 ug/ml after 4 hrs by differential interference contrast microscopic analysis; format: functional, organism-based
[8] = molecular target: T1, Lanosterol 14-alpha demethylase; test: Inhibition of CYP51 in azole-resistant Candida albicans 0304103 assessed as unknown sterol 1 level at 0.5 ug/ml after 24 hrs by GC-MS analysis (reference value: 2.91%); set-up: scale not given: the % may be the effect or the level left
[9] = molecular target: T1, Lanosterol 14-alpha demethylase; test: Inhibition of CYP51 in azole-resistant Candida albicans 0304103 assessed as unknown sterol 2 level at 0.5 ug/ml after 24 hrs by GC-MS analysis (reference value: 6.77%); set-up: scale not given: the % may be the effect or the level left
Candida albicans [10] = test: Antifungal activity against azole-resistant Candida albicans 4108 after 48 hrs by spectrophotometry-based serial microdilution method; format: functional; conditions: Candida albicans, 4108, 48 h
Candida albicans [11] = test: Inhibition of HDAC in azole-resistant Candida albicans 0304103 assessed as reduction in CDR2 gene expression at 32 ug/ml after 16 hrs by SYBR Green-1 dye based RT-PCR analysis; conditions: 304103
[12] = molecular target: T1, Lanosterol 14-alpha demethylase; test: Inhibition of CYP51 in azole-resistant Candida albicans 0304103 assessed as lanosterol level at 0.5 ug/ml after 24 hrs by GC-MS analysis (reference value: 4.15%); set-up: scale not given: the % may be the effect or the level left
Candida albicans [13] = conditions: 0304103, 32 ug/ml
Description: Inhibition of HDAC in azole-resistant Candida albicans 0304103 assessed as decrease in rhodamine 6G efflux at 32 ug/ml after 16 hrs by fluorimetry

Cryptococcus neoformans = test: Antifungal activity against azole-sensitive Cryptococcus neoformans H99 after 72 hrs by spectrophotometry-based serial microdilution method; format: functional, var grubii H99; conditions: Cryptococcus neoformans, var grubii H99 , 72 h; read-out: MIC80
[14] = molecular target: T1, Lanosterol 14-alpha demethylase; test: Inhibition of CYP51 in azole-resistant Candida albicans 0304103 assessed as unknown sterol 4 level at 0.5 ug/ml after 24 hrs by GC-MS analysis (reference value: 1.29%); set-up: scale not given: the % may be the effect or the level left
Candida albicans [15] = test: Antifungal activity against azole-resistant Candida albicans 0304103 after 48 hrs by spectrophotometry-based serial microdilution method; format: functional; conditions: Candida albicans, 0304103, 48 h
Candida albicans [16] = test: Inhibition of HDAC in azole-resistant Candida albicans 0304103 assessed as reduction in CDR1 gene expression at 32 ug/ml after 16 hrs by SYBR Green-1 dye based RT-PCR analysis; conditions: 304103
[17] = molecular target: T1, Lanosterol 14-alpha demethylase; test: Inhibition of CYP51 in azole-resistant Candida albicans 0304103 assessed as ergosterol content at 0.5 ug/ml after 24 hrs by GC-MS analysis (reference value: 75.21%); set-up: scale not given: the % may be the effect or the level left
Histone deacetylase = test: Inhibition of HDAC in HUVEC using Boc-Lys(Ac)-AMC as substrate preincubated for 12 hrs followed by substrate addition and measured after 4 hrs by fluorimetry; format: ADME, cell-based, Homo sapiens
Candida albicans [18] = test: Inhibition of HDAC in azole-resistant Candida albicans 0304103 assessed as reduction in MDR1 gene expression at 32 ug/ml after 16 hrs by SYBR Green-1 dye based RT-PCR analysis; conditions: 304103

SMILES: OC(Cn1cncn1)(Cn1cncn1)c1ccc(F)cc1F [FLUCONAZOLE]
- MIC80 (Candida albicans [1]): > 64 µg/mL
- Activity [2]: 4.66%
- inhibition (INH) [3]: Not Active
- inhibition at 64 µg/mL (Candida albicans [4]): 22.9%
- Activity [5]: 4.7%
- MIC80 (Candida tropicalis): > 64 µg/mL
- MIC80 (Candida albicans [6]): 0.5 µg/mL (≈ 1.63 µM)
- Activity (Candida albicans [7]): inactive
- Activity [8]: 3.06%
- Activity [9]: 7.5%
- MIC80 (Candida albicans [10]): > 64 µg/mL
- inhibition (Candida albicans [11]): inactive
- Activity [12]: 3.94%
- inhibition (Candida albicans [13]): inactive
- MIC80 (Cryptococcus neoformans): 2 µg/mL (≈ 6.53 µM)
- Activity [14]: 1.17%
- MIC80 (Candida albicans [15]): > 64 µg/mL
- inhibition (Candida albicans [16]): inactive
- Activity [17]: 74.97%
- IC50 (Histone deacetylase): > 40 µM
- inhibition (Candida albicans [18]): inactive
